Assay results from patent US20090131524A1, “SIALIC ACID ABC TRANSPORTERS IN PROKARYOTES THERAPEUTIC TARGETS” (BUCK INSTITUTE, priority 2005, published 2009).

Tested on: H. ducreyi
Assay: growth of H. ducreyi in the presence of sialic acid
Assay type: cell-based, Haemophilus ducreyi
Procedure: H. ducreyi strains were cultured on chocolate agar plates at 35° C. in a 5% CO2 atmosphere as previously described (42). Chocolate agar was supplemented with 1 mM NeuAc (Calbiochem, La Jolla, Calif.) or kanamycin at 20 μg/ml when appropriate. E. coli strains were grown on Luria-Bertani (LB) plates or in LB broth, and were supplemented with kanamycin when appropriate.
In this and previous studies, H. ducreyi were grown on plates containing high levels of sialic acid (22, 50). […] To more quantitatively test whether the presence of high levels of sialic acid affected the growth rate of H. ducreyi, growth curves of H. ducreyi in low (˜0.5 μM, basal level in media) (50), medium (10 μM), and high (1 mM) sialic acid conditions were performed (46). […] Both E. coli and H. influenzae seem to utilize their ability to degrade sialic acid as one mechanism of controlling the intracellular levels of sialic acid (66, 68, 69). As noted above, it is currently unclear if H. ducreyi is able to degrade sialic acid. Another possible mechanism for controlling sialic acid uptake may be through the PBPs. […] Therefore, it is possible that SatA may play an important role in controlling sialic acid uptake in H. ducreyi. One mechanism of control could be that the level of satA expression may be affected by the intracellular levels of sialic acid. […]

CC(=O)N[C@H]1[C@H]([C@H](O)[C@H](O)CO)OC(O)(C(=O)O)C[C@@H]1O (some centres unmarked) [sialic acid, N-acetyl-neuraminic acid]
effect of sialic acid on growth of the bacteria on plates (grown on plates containing high levels of sialic acid): did not seem to affect the growth | growth rate (growth curves) (low (~0.5 μM, basal level in media), medium (10 μM) and high (1 mM) sialic acid): no differences in the growth rates
